This test concerns Beta vulgaris calli. Description: DEX-inducible 35S-BnBBM-GR: shoot formation and callus-based transformation efficiency. The format is cell-based, Beta vulgaris (sugar beet). As to conditions: BnBBM-GR with DEX-induction. As to the method: By applying the following method callus for Beta vulgaris (sugar beet) has been induced: Micropropagated shoots were used as starting material. Shoots were multiplied in medium containing MS salts, 30 g/l sucrose, 0.25 mg/l benzyladenine (BAP) and 10 g/l agar (pH 6.0). To induce friable callus, leaf explants were incubated for 7-8 weeks in media having MS salts, 15 g/l sucrose, 2 mg/l BAP, and 8 g/l agar (pH 6.0).
For Agrobacterium-mediated transformation friable calli were mounted in media containing MS salts, 30 g/l sucrose, 1 mg/l GA3, 1 mg/l TDZ, and 10 g/l agar (pH 6.0) and kept for 1 week in the dark at 24° C. Agrobacterium harbouring the vector of IPR232-pS-01 (FIG. 12) was grown in medium containing 5 g/l tryptone, 2.5 g/l yeast extract, 1 g/l NaCl, 5 g/l mannitol, 0.1 g/l MgSO4×7H2O, 0.25 g/l KH2PO4, 1 g/l glutamic acid (pH 7.0) supplemented with the appropriate antibiotics, at 28° C., for 24 h. […]
For quantification of transformation rate a) the inducible BnBBM system based on DEX/GR as described above as well as a constitutive overexpression of BnBBM have been tested on an amenable genotype and a recalcitrant genotype. […]

Experimental findings from patent publication US12527270B2, “Promoting regeneration and transformation in plants” (KWS SAAT SE & CO. KGAA, priority 2020, dated 2026) are described below.

For the compound `C[C@@H]1C[C@H]2[C@@H]3CCC4=CC(=O)C=C[C@]4(C)[C@@]3(F)[C@@H](O)C[C@]2(C)[C@@]1(O)C(=O)CO` [DEX, dexamethasone], the transformation efficiency entry by setting is: (amenable genotype) “around 70%”; (recalcitrant genotype) “around 18%”.
